Assay results published in patent US20240317866A1, “Use of Anti-EGFR/Anti-Met Antibody to Treat Gastric or Esophageal Cancer” (Janssen Biotech, Inc., priority 2022, published 2024).

Legend:
Type in all cases: in vivo, BALB/c nude mice
GA0046 gastric PDX = assay: Gastric PDX model GA0046, tumor growth inhibition
GA0075 gastric PDX = assay: Gastric PDX model GA0075, tumor growth inhibition; conditions: amivantamab 10 mg/kg i.p. BIW, 5-FU 10 mg/kg i.p. QD 5 days/week, cisplatin 4 mg/kg i.p. QW, paclitaxel 15 mg/kg i.v. QW, vs isotype control, Day28
Protocol: (§1) Tumor fragments from stock tumor bearing mice were harvested and inoculated into BALB/c nude mice. Each mouse was inoculated subcutaneously in the right flank with indicated tumor fragments (2-3 mm in diameter) for tumor development.
(§2) After establishment of palpable lesions, the tumor growth was measured twice weekly. Once the mean tumor volume reached approximate 150 mm^3, animals were randomly allocated to relevant study groups with 8 mice per group. The randomization was performed according to the tumor size of each group, and the day of randomization was denoted as Day0. The treatments were started on the same day of randomization according to the dosing regimen in Table 18 where appropriate.
(§3) The study endpoints were to compare the tumor growth in each group at the end of treatments, and the subsequent tumor outgrowth after dosing stopped. The tumor size was measured twice weekly in two dimensions using a caliper, and the tumor volume was expressed in mm3 using the formula V=0.5×L×W^2, where V was tumor volume, L was tumor length (longest tumor dimension) and W was tumor width (longest tumor dimension perpendicular to L).
(§4) Tumor growth inhibition (TGI %) was an indication of anti-tumor activities, and calculated as TGI %=(1−(T−T0)/(C−C0))×100%, T and C were the mean tumor volume (TV) of treated and control groups, respectively on the day when mean TV of control group were terminated per study design.

GA3121 gastric PDX = assay: Gastric PDX model GA3121, tumor growth inhibition; conditions: amivantamab 10 mg/kg i.p. BIW, paclitaxel 10 mg/kg i.v. QW, vs isotype control
Protocol: as §1, §2
as §3, with “L). […]” for “L).”

GA0152 gastric PDX = assay: Gastric PDX model GA0152, tumor growth inhibition; conditions: amivantamab 10 mg/kg i.p. BIW, 5-FU 10 mg/kg i.p. QD 5 days/week, cisplatin 4 mg/kg i.p. QW, paclitaxel 15 mg/kg i.v. QW, vs isotype control
Protocol: as §1, §2, §3, §4

Row | Structure (SMILES) | effect on tumor growth (in words) (GA0046 gastric PDX; amivantamab 10 mg/kg BIW single agent, capmatinib 10 mg/kg BID) | TGI% (GA0046 gastric PDX; amivantamab 10 mg/kg i.p. BIW, capmatinib 10 mg/kg p.o. BID, vs isotype control, Day28) [%] | TGI% (GA0075 gastric PDX) [%] | TGI% (GA3121 gastric PDX) [%] | TGI% (GA0152 gastric PDX) [%] | TGI% (GA0152 gastric PDX; listed as paxlitaxel) [%]
1 | CNC(=O)c1ccc(-c2cnc3ncc(Cc4ccc5ncccc5c4)n3n2)cc1F [capmatinib, reference compound] | no effect on tumor growth | 5.93 | – | – | – | –
2 | CC(=O)O[C@H]1C(=O)[C@@]2(C)[C@H]([C@H](OC(=O)c3ccccc3)[C@]3(O)C[C@H](OC(=O)[C@H](O)[C@@H](NC(=O)c4ccccc4)c4ccccc4)C(C)=C1C3(C)C)[C@]1(OC(C)=O)CO[C@@H]1C[C@@H]2O [paclitaxel, reference compound] | – | – | 66.09 | −12.99 | 27.29 | 27.29
